These results are taken from patent US8147808B2, “Consumer noticeable improvement in wetness protection using solid antiperspirant compositions” (The Procter & Gamble Company, priority 2005, dated 2012).

The experiment is described as follows: Odor detection threshold (ODT) determined using a gas chromatograph. The conditions noted are these: odor detection threshold of HIA perfume ingredient. The source says:
HIA perfume ingredients are characterized by their respective boiling point (B.P.), octanol/water partition coefficient (P) and odor detection threshold (“ODT”). The “octanol/water partition coefficient (P)” of a perfume ingredient is the ratio between its equilibrium concentrations in octanol and in water. The boiling points of many perfume ingredients, at standard pressure (760 mm Hg) are given in, e.g., “Perfume and Flavor Chemicals (Aroma Chemicals),” Steffen Arctander, published by the author.
Odor detection thresholds are determined using a gas chromotograph as disclosed in co-pending application, Browne, et al., filed Jun. 9, 2004.
Consider `CCCCCCC=CC(=O)OC` [methyl-2-nonenoate], for which the ODT entry is “≦50 ppb”.

For the compound `CC(C)=CCCC(C)CCCC(C)C=O` (stereo not drawn) [Adoxal], the ODT result is “≧50 ppb”.

On to Citralva Plus, for which the ODT entry is “≦50 ppb”.

In the case of `CCC/C=C/C=O` [Trans-2 Hexenal], the ODT entry is listed as “≦50 ppb”.

In the case of `CC(C)=CCCC(C)C=O` (stereo not drawn) [Melonal], the ODT result is “≦50 ppb”.

For `CC1=CCC(C(C)CC2CCCC2=O)CC1` (stereo not drawn) [Nectaryl], the ODT entry is given as “≧50 ppb”.

In the case of `CC(=O)CCc1ccc(O)cc1` [Para Hydroxy Phenyl Butanone], the ODT result is on record as “≦50 ppb”.

For `CCCCCCCCCC(C)C=O` (stereo not drawn) [Methyl Nonyl Acetaldehyde], the ODT entry was “≦50 ppb”.

As for `C/C=C\C(=O)C1C(C)=CCCC1(C)C` (stereo not drawn) [Damarose Alpha], the ODT result is reported as “≦50 ppb”.

As to `CC1(C)C2CC=C(CCC=O)C1C2` (stereo not drawn) [Pino Acetaldehyde], the ODT result is “≦50 ppb”.

For the compound `CC/C=C\CCO` [Beta Gamma Hexenol], the ODT result is reported as “≧50 ppb”.

As to `CCOC(=O)C(C)CC` (stereo not drawn) [ethyl-2-methyl butyrate], the ODT result is “≦50 ppb”.

For `C=CCOC(=O)CCCCCC` [Allyl Heptanoate], the ODT result is on record as “≧50 ppb”.

Turning to `C=CCCC(=O)C1=CCCC(C)(C)C1` [Neobutenone], the ODT entry is “≦50 ppb”.

For `CCCCCCC(C=O)=Cc1ccccc1` [Hexyl Cinnamic Aldehyde], the ODT result was “≧50 ppb”.

In the case of `C=C(C)[C@H]1CC=C(C)CC1` [d-limonene], the ODT result is “≧50 ppb”.

Take `CCCCCCCCCC=O` [Decyl Aldehyde]: the ODT result is recorded as “≦50 ppb”.

For the compound `CC/C=C\CCOC(C)=O` [Cis 3 Hexenyl Acetate], the ODT result was “≧50 ppb”.

With `CCC=CCCC=CC=O` [2-6-nonadienal], the ODT result is listed as “≦50 ppb”.

As to `CC(=O)/C=C/C1=C(C)CCCC1(C)C` [Ionone Beta], the ODT result is recorded as “≦50 ppb”.

With `CC(=O)OC1CCCCC1C(C)(C)C` (stereo not drawn) [Verdox], the ODT result is on record as “≧50 ppb”.

Take `CCCCCCCCC/C=C/C=O` [Mandarin Aldehyde]: the ODT entry is “≦50 ppb”.

Regarding Natural Sinensal, the ODT entry is given as “≦50 ppb”.

With `CCCCCCCC1CCC(=O)O1` (stereo not drawn) [Undecalactone], the ODT entry is “≧50 ppb”.
